US9302999B2, “Substituted triazoles as herbicides” (E. I. DU PONT DE NEMOURS AND COMPANY, priority 2012, dated 2016)

Legend:
Assay type in all cases: in vivo
[1] = system: sandbur (southern sandbur, Cenchrus echinatus); test: Test E pre-/postemergence: sandbur; details: scale 0 to 100
From the text: Seeds of plant species selected from corn (Zea mays), soybean (Glycine max), velvetleaf (Abutilon theophrasti), lambsquarters (Chenopodium album), poinsettia, wild (wild poinsettia, Euphorbia heterophylla), pigweed, palmer (palmer pigweed, Amaranthus palmeri), waterhemp (common waterhemp, Amaranthus rudis), smartweed (ladysthumb smartweed, Polygonum persicaria), surinam grass (Brachiaria decumbens), crabgrass, large (large crabgrass, Digitaria sanguinalis), crabgrass, Brazil (Brazilian crabgrass, Digitaria horizontalis), panicum, fall (fall panicum, Panicum dichotomiflorum), foxtail, giant (giant foxtail, Setaria faberii), foxtail, green (green foxtail, Setaria viridis), goosegrass (Eleusine indica), johnsongrass (Sorghum halepense), ragweed (common ragweed, Ambrosia elation), barnyardgrass (Echinochloa crus-galli), sandbur (southern sandbur, Cenchrus echinatus), arrowleaf sida (Sida rhombifolia), ryegrass, Italian (Italian ryegrass, Lolium multiflorum), dayflower, (VA) (Virginia dayflower, Commelina virginica), field bindweed (Convolvulus arvensis), cocklebur (common cocklebur, Xanthium strumarium), morningglory (Ipomoea coccinea), nightshade (eastern black nightshade, Solanum ptycanthum), kochia (Kochia scoparia), nutsedge, yellow (yellow nutsedge, Cyperus esculentus) and beggarticks (hairy beggarticks, Bidens pilosa) were planted into a silt loam soil and treated preemergence with test chemicals formulated in a non-phytotoxic solvent mixture which included a surfactant. At the same time, plants selected from these crop and weed species were planted in pots containing a growing medium comprising spaghnum peat moss, vermiculite, wetting agent and starter nutrients and treated with postemergence applications of some of the test chemicals formulated in the same manner. Plants ranged in height from 2 to 18 cm for postemergence treatments (1- to 4-leaf stage).
(§1) Treated plants and controls were maintained in a greenhouse for 14 to 21 days, after which time all species were compared to controls and visually evaluated. Plant response ratings, summarized in Table E, are based on a scale of 0 to 100 where 0 is no effect and 100 is complete control. A dash (-) response means no test result.

[2] = system: radish, wild (wild radish, Raphanus raphanistrum); test: Test D pre-/postemergence: radish, wild
From the text: Seeds of plant species selected from bluegrass (annual bluegrass, Poa annua), blackgrass (Alopecurus myosuroides), canarygrass (Phalaris minor), chickweed (common chickweed, Stellaria media), galium (catchweed bedstraw, Galium aparine), bromegrass, downy (downy bromegrass, Bromus tectorum), field poppy (Papaver rhoeas), field violet (Viola arvensis), foxtail, green (green foxtail, Setaria viridis), deadnettle (henbit deadnettle, Lamium amplexicaule), ryegrass, Italian (Italian ryegrass, Lolium multiflorum), kochia (Kochia scoparia), lambsquarters (Chenopodium album), oilseed rape (Brassica napus), pigweed (Amaranthus retroflexus), Russian thistle (Salsola iberica), chamomile (scentless chamomile, Matricaria inodora), speedwell (bird's-eye speedwell, Veronica persica), barley, spring (spring barley, Hordeum vulgare), wheat, spring (spring wheat, Triticum aestivum), buckwheat, wild (wild buckwheat, Polygonum convolvulus), mustard, wild (wild mustard, Sinapis arvensis), oat, wild (wild oat, Avena fatua), radish, wild (wild radish, Raphanus raphanistrum), windgrass (Apera spica-venti), barley, winter (winter barley, Hordeum vulgare), and wheat, winter (winter wheat, Triticum aestivum) were planted into a silt loam soil and treated preemergence with test chemicals formulated in a non-phytotoxic solvent mixture which included a surfactant. At the same time, these same crop and weed species were planted in pots containing the planting medium comprising spaghnum peat moss, vermiculite, wetting agent and starter nutrients and treated with postemergence applications of the test chemicals formulated in the same manner. Plants ranged in height from 2 to 18 cm (1- to 4-leaf stage).
as §1, with “controlled growth environment” for “greenhouse”, “days” for “days,”, “D,” for “E,”

[3] = system: sandbur (southern sandbur, Cenchrus echinatus); test: Test F pre-/postemergence: sandbur
From the text: (§2) Seeds of plant species selected from corn (Zea mays), soybean (Glycine max), velvetleaf (Abutilon theophrasti), lambsquarters (Chenopodium album), poinsettia, wild (wild poinsettia, Euphorbia heterophylla), pigweed, palmer (palmer pigweed, Amaranthus palmeri), waterhemp (common waterhemp, Amaranthus rudis), surinam grass (Brachiaria decumbens), crabgrass, Brazil (Brazilian crabgrass, Digitaria horizontalis), panicum, fall (fall panicum Panicum dichotomiflorum), crabgrass, large (large crabgrass, Digitaria sanguinalis), foxtail, giant (giant foxtail, Setaria faberii), foxtail, green (green foxtail Setaria viridis), goosegrass (Eleusine indica), ragweed (common ragweed, Ambrosia elatior), barnyardgrass (Echinochloa crus-galli), sandbur (southern sandbur, Cenchrus echinatus), arrowleaf sida (Sida rhombifolia), ryegrass, Italian (Italian ryegrass, Lolium multiflorum), dayflower, VA (Virginia (VA) dayflower, Commelina virginica), field bindweed (Convolvulus arvensis), cocklebur (common cocklebur, Xanthium strumarium), morningglory (Ipomoea coccinea), nightshade (eastern black nightshade, Solanum ptycanthum), kochia (Kochia scoparia), nutsedge, yellow (yellow nutsedge, Cyperus esculentus), johnsongrass (Sorghum halepense), smartweed (ladysthumb smartweed, Polygonum persicaria), and beggarticks (hairy beggarticks, Bidens pilosa), were planted into a silt loam soil and treated preemergence with test chemicals formulated in a non-phytotoxic solvent mixture which included a surfactant. At the same time, plants selected from these crop and weed species and also pigweed (Amaranthus retroflexus), waterhemp_RES1 (ALS/Triazine resistant common waterhemp, Amaranthus rudis) and waterhemp_RES2 (ALS/HPPD resistant common waterhemp, Amaranthus rudis) were planted in pots containing a planting medium comprising spaghnum peat moss, vermiculite, wetting agent and starter nutrients treated with postemergence applications of some of the test chemicals formulated in the same manner. Plants ranged in height from 2 to 18 cm for postemergence treatments (1- to 4-leaf stage).
as §1

[4] = system: ryegrass, Italian (Italian ryegrass, Lolium multiflorum); test: Test F pre-/postemergence: ryegrass, Italian
From the text: as §2, §1

[5] = Postemergence, 31 g ai/ha, scale 0 to 100 (0 no effect, 100 complete control)
[6] = Postemergence, 62 g ai/ha, scale 0 to 100 (0 no effect, 100 complete control)
[7] = Postemergence, 125 g ai/ha, scale 0 to 100, 0 no effect, 100 complete control
[8] = Postemergence, 250 g ai/ha, scale 0 to 100 (0 no effect, 100 complete control)
[9] = Postemergence, 16 g ai/ha, scale 0 to 100
[10] = Preemergence, 16 g ai/ha, scale 0 to 100 (0 no effect, 100 complete control)
[11] = Preemergence, 31 g ai/ha, scale 0 to 100 (0 no effect, 100 complete control)
[12] = Preemergence, 62 g ai/ha, scale 0 to 100
[13] = Preemergence, 125 g ai/ha, scale 0 to 100
[14] = Preemergence, 250 g ai/ha, scale 0 to 100
[15] = Postemergence, 8 g ai/ha, scale 0 to 100
[16] = Postemergence, 31 g ai/ha, scale 0 to 100
[17] = Postemergence, 62 g ai/ha, scale 0 to 100
[18] = Postemergence, 125 g ai/ha, scale 0 to 100
[19] = Postemergence, 4 g ai/ha, scale 0 to 100
[20] = Preemergence, 4 g ai/ha, scale 0 to 100, 0 no effect, 100 complete control
[21] = Preemergence, 8 g ai/ha, scale 0 to 100, 0 no effect, 100 complete control

With `Cc1nn(-c2ccc(F)cc2)nc1Cc1ccnc(C(F)(F)F)c1` [Compound 16, 4-[[2-(4-fluorophenyl)-5-methyl-2H-1,2,3-triazol-4-yl]methyl]-2-(trifluoromethyl)pyridine] the “Plant response rating: Sandbur” value ([1]; Preemergence, 8 g ai/ha) was 0, the “Plant response rating: Sandbur” value ([1]; Preemergence, 16 g ai/ha) was 0 and the “Plant response rating: Sandbur” value ([1]; Preemergence, 31 g ai/ha) was 10. For the same molecule, the “Plant response rating: Sandbur” value ([1]; Preemergence, 62 g ai/ha) was 50, the “Plant response rating: Sandbur” value ([1]; Preemergence, 125 g ai/ha) was 60 and the “Plant response rating: Radish, Wild” value [2, 5] was 100. The “Plant response rating: Radish, Wild” value [2, 6] was 100, the “Plant response rating: Radish, Wild” value [2, 7] was 100 and the “Plant response rating: Radish, Wild” value [2, 8] was 100. The “Plant response rating, Radish, Wild” value [2, 9] was 90.

With `Cc1nn(-c2ccc(C(F)(F)F)cc2)nc1Cc1ccnc(C(F)(F)F)c1` [Compound 47, 4-[[5-methyl-2-[4-(trifluoromethyl)phenyl]-2H-1,2,3-triazol-4-yl]methyl]-2-(trifluoromethyl)pyridine] the “Plant response rating: Sandbur” value ([1]; Postemergence, 250 g ai/ha) was 50, the “Plant response rating: Sandbur” value ([1]; Postemergence, 16 g ai/ha) was 20 and the “Plant response rating: Sandbur” value ([1]; Postemergence, 31 g ai/ha) was 25. The “Plant response rating: Sandbur” value ([1]; Postemergence, 62 g ai/ha) was 25, the “Plant response rating: Sandbur” value ([1]; Postemergence, 125 g ai/ha) was 30 and the “Plant response rating: Sandbur” value ([1]; Preemergence, 16 g ai/ha) was 0. The “Plant response rating: Sandbur” value ([1]; Preemergence, 31 g ai/ha) was 20, the “Plant response rating: Sandbur” value ([1]; Preemergence, 62 g ai/ha) was 90 and the “Plant response rating: Sandbur” value ([1]; Preemergence, 250 g ai/ha) was 100.

`Cc1nn(-c2ccc(F)cc2)nc1Oc1ccnc(C(F)(F)F)c1` [Compound 129, 4-[[2-(4-fluorophenyl)-5-methyl-2H-1,2,3-triazol-4-yl]oxy]-2-(trifluoromethyl)pyridine] was tested, and the “Plant response rating: Sandbur” value ([1]; Preemergence, 8 g ai/ha) was 0, the “Plant response rating: Sandbur” value ([1]; Preemergence, 16 g ai/ha) was 0 and the “Plant response rating: Sandbur” value ([1]; Preemergence, 31 g ai/ha) was 20. The “Plant response rating: Sandbur” value ([1]; Preemergence, 62 g ai/ha) was 20, the “Plant response rating: Sandbur” value ([1]; Preemergence, 125 g ai/ha) was 50 and the “Plant response rating: Radish, Wild” value [2, 5] was 90. The “Plant response rating: Radish, Wild” value [2, 6] was 100, the “Plant response rating: Radish, Wild” value [2, 7] was 100 and the “Plant response rating: Radish, Wild” value [2, 8] was 100. For the same molecule, the “Plant response rating, Radish, Wild” value [2, 9] was 90, the “Plant response rating, Radish, Wild” value [2, 10] was 0 and the “Plant response rating, Radish, Wild” value [2, 11] was 0. The “Plant response rating, Radish, Wild” value [2, 12] was 10, the “Plant response rating, Radish, Wild” value [2, 13] was 100 and the “Plant response rating, Radish, Wild” value [2, 14] was 100.

`Cc1nn(-c2ccnc(C(F)(F)F)c2)nc1Cc1ccnc(C(F)(F)F)c1` [Compound 137] was tested, and the “Plant response rating: Radish, Wild” value [2, 5] was 40, the “Plant response rating: Radish, Wild” value [2, 6] was 90 and the “Plant response rating: Radish, Wild” value [2, 7] was 100. For the same molecule, the “Plant response rating: Radish, Wild” value [2, 8] was 100 and the “Plant response rating, Radish, Wild” value [2, 9] was 40.

With `Fc1ccc(-n2nc(Cc3ccnc(C(F)(F)F)c3)c(OCC(F)(F)F)n2)cc1` [Compound 142] the “Plant response rating, Sandbur” value [3, 10] was 5, the “Plant response rating, Sandbur” value [3, 11] was 5 and the “Plant response rating, Sandbur” value [3, 13] was 70. The “Plant response rating, Ryegrass, Italian” value [4, 10] was 5, the “Plant response rating, Ryegrass, Italian” value [4, 11] was 65 and the “Plant response rating, Ryegrass, Italian” value [4, 13] was 100.

For `Cc1nn(-c2ccc(F)c(F)c2)nc1Oc1ccnc(C(F)(F)F)c1` [Compound 145], the “Plant response rating, Sandbur” value [3, 15] was 10, the “Plant response rating, Sandbur” value [3, 9] was 20 and the “Plant response rating, Sandbur” value [3, 16] was 30. For the same molecule, the “Plant response rating, Sandbur” value [3, 17] was 35, the “Plant response rating, Sandbur” value [3, 18] was 35 and the “Plant response rating, Ryegrass, Italian” value [4, 15] was 5. The “Plant response rating, Ryegrass, Italian” value [4, 9] was 10, the “Plant response rating, Ryegrass, Italian” value [4, 16] was 20 and the “Plant response rating, Ryegrass, Italian” value [4, 17] was 30. The “Plant response rating, Ryegrass, Italian” value [4, 18] was 40.

With `Cc1nn(-c2ccc(F)c(C(F)(F)F)c2)nc1Oc1ccnc(C(F)(F)F)c1` [Compound 147] the “Plant response rating: Radish, Wild” value [2, 5] was 100, the “Plant response rating: Radish, Wild” value [2, 6] was 95 and the “Plant response rating: Radish, Wild” value [2, 7] was 100. The “Plant response rating, Radish, Wild” value [2, 9] was 85, the “Plant response rating, Radish, Wild” value [2, 11] was 10 and the “Plant response rating, Radish, Wild” value [2, 12] was 100. The “Plant response rating, Radish, Wild” value [2, 13] was 100.

`CCCc1nn(-c2ccc(F)cc2)nc1Cc1ccnc(C(F)(F)F)c1` [Compound 153] was tested, and the “Plant response rating, Sandbur” value [3, 10] was 5, the “Plant response rating, Sandbur” value [3, 11] was 35 and the “Plant response rating, Sandbur” value [3, 13] was 95. The “Plant response rating, Sandbur” value [3, 14] was 100, the “Plant response rating, Ryegrass, Italian” value [4, 10] was 5 and the “Plant response rating, Ryegrass, Italian” value [4, 11] was 5. The “Plant response rating, Ryegrass, Italian” value [4, 13] was 65 and the “Plant response rating, Ryegrass, Italian” value [4, 14] was 95.

`Cc1nn(-c2ccc(C(F)(F)F)c(F)c2)nc1Cc1ccnc(C(F)(F)F)c1` [Compound 162] was tested, and the “Plant response rating, Sandbur” value [3, 19] was 10, the “Plant response rating, Sandbur” value [3, 15] was 10 and the “Plant response rating, Sandbur” value [3, 9] was 15. The “Plant response rating, Sandbur” value [3, 16] was 20, the “Plant response rating, Sandbur” value [3, 17] was 20 and the “Plant response rating, Sandbur” value [3, 20] was 0. The “Plant response rating, Sandbur” value [3, 21] was 0, the “Plant response rating, Sandbur” value [3, 10] was 5 and the “Plant response rating, Sandbur” value [3, 11] was 15. The “Plant response rating, Ryegrass, Italian” value [4, 19] was 0, the “Plant response rating, Ryegrass, Italian” value [4, 15] was 0 and the “Plant response rating, Ryegrass, Italian” value [4, 9] was 0. The “Plant response rating, Ryegrass, Italian” value [4, 16] was 0, the “Plant response rating, Ryegrass, Italian” value [4, 17] was 0 and the “Plant response rating, Ryegrass, Italian” value [4, 20] was 0. The “Plant response rating, Ryegrass, Italian” value [4, 21] was 0, the “Plant response rating, Ryegrass, Italian” value [4, 10] was 35 and the “Plant response rating, Ryegrass, Italian” value [4, 11] was 80.
